Results on one compound are retold here after US8435561B2 (Besins Healthcare Luxembourg Sarl, priority 2001, dated 2013).

The data set can be described thus: Comparative particle size study (Mastersizer 2000 laser particle sizer). The format is physicochemical. The conditions noted are these: in sesame seed oil, olive oil, colza oil or almond oil, compared to that obtained in peanut oil.

On to `CC(=O)[C@H]1CC[C@H]2[C@@H]3CCC4=CC(=O)CC[C@]4(C)[C@H]3CC[C@]12C` [Micronized Progesterone, progesterone], for which the “size distribution of progesterone” value is “comparable”.
